pIC50: −log10 of the molar value.
Legend:
CDK5/GST-p25 = molecular target: T1, CDK5/GST-p25 (Homo sapiens, UniProt Q00535); assay: Inhibition of CDK5/GST-p25 kinase activity (ELISA with time-resolved fluorescence readout); assay type: biochemical; settings: for pIC50: class symbols
T1 construct: The final construct, encoding for full-length human CDK5; made in house; host or cells: Sf21 insect cells (baculovirus co-infection)
Procedure: Two recombinant baculoviral constructs were created, one encoding for human CDK5 and the other encoding for human p25 with an amino-terminal glutathione-S-transferase (GST) tag. PCR amplification of full-length CDK5 was performed utilizing human brain cDNA as a template and Pfu Turbo polymerase (Strategene). The PCR product from this reaction was subcloned into the baculoviral expression vector pFASTBAC1 (Gibco/BRL). The final construct, encoding for full-length human CDK5 (base pairs 25-903 of GenBank Accession #NM_004935), is 292 amino acids long with a predicted MW of 33.3 kDa.
For p25, the active truncated form of p35, amino acids 108-307 were PCR-amplified from human fetal brain cDNA (Clontech QUICK-Clone cDNA) using the Advantage 2 PCR system (Clontech). The PCR product was subcloned into the baculoviral transfer vector pFBGSTP (an engineered derivative of the baculoviral transfer vector pFASTBAC1). The final baculoviral construct encodes for base pairs 419-1021 of GenBank Accession #NM_003885, with an amino-terminal GST tag. The expressed GST-p25 is 444 amino acids long with a predicted MW of 50.3 kDa.
The CDK5/GST-p25 complex was generated by coexpression. Sf21 cells were cultured in TNM-FHS media at a density of 1.5×10^6 cells/mL and infected with each recombinant virus at MOI values of 5 (for CDK5) and 10 (for GST-p25). The cells were harvested 40 h after infection. For purification, the 100,000×g supernatant solution was used. Expression was confirmed by running samples on SDS-PAGE, followed by immunoblot analysis utilizing antibodies against CDK5 (anti-CDK5 (268-283); Calbiochem #219449) and p35 (Santa Cruz #sc820). The CDK5/GST-p25 complex was purified by glutathione affinity chromatography.
Compounds were tested for their ability to inhibit the kinase activity of recombinant baculoviral CDK5/GST-p25 using an enzyme-linked immunosorbent assay (ELISA) with time-resolved fluorescence (TRF) readout. Briefly, each 384-well FluoroNunc Maxisorp plate (Cat # 460372) plate was coated with 50 μl/well of 50 μg/ml substrate solution (recombinant GST-Rb(773-928)) in Tris-buffered saline (TBS). The CDK5/GST-p25 assay mixture (total volume=50 μl/well) consisting of 20 mM HEPES (pH 7.2), 10 μM ATP, 10 mM MgCl2, 5 mM EGTA, 25 mM β-glycerophosphate, 0.05% BSA, 2.5% DMSO, and various concentrations of test compound were then added to the assay plate. Enzyme (2 ng/ml CDK5/GST-p25) was added and the reaction was allowed to proceed at 37° C. for 20 minutes. Detection of the phosphorylated product was performed by adding 50 μl/well of phospho-Rb (Ser-780) antibody (Cell Signaling # 9307) diluted 1:10,000 in antibody dilution buffer (0.1% BSA in TBST). After 1-hour incubation at 37° C., 50 μl/well of Eu-Nl labelled anti-rabbit antibody (Wallac # AD0105; 1:50,000 in antibody dilution buffer) was added. Incubation at 37° C. then proceeded for 1 hour, followed by addition of 50 μl enhancement solution (Wallac #1244-105). The plate was gently agitated and after a few minutes, the fluorescence of the resulting solution was measured using a Multilabel Reader (Victor2 Model # 1420-018 or Envision Model # 2100). Inhibition data were analyzed using ActivityBase and IC50 curves were generated using XLFit 3.0.5.

His6-GSK-3β = molecular target: T2, His6-GSK-3β (Homo sapiens, UniProt P49841); assay: Inhibition of His6-GSK-3β kinase activity (ELISA-based format, time-resolved fluorescence readout); assay type: biochemical; settings: class symbols; read-out: GSK3β IC50
T2 construct: made in house; host or cells: Sf21 insect cells (baculovirus)
T2 sequence (P49841 2-419): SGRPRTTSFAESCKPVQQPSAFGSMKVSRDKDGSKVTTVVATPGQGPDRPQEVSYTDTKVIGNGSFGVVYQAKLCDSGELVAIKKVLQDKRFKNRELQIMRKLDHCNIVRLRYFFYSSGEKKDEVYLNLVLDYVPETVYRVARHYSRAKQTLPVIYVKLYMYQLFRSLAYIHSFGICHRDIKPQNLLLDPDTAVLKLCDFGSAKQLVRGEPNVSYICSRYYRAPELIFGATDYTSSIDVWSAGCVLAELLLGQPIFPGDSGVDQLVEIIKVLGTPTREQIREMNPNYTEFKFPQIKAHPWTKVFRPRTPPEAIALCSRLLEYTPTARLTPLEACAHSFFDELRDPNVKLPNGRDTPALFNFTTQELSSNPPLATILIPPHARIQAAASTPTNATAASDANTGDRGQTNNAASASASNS
Source text: Full-length GSK-3β was amplified from a sequence-verified I.M.A.G.E. EST acquired from Research Genetics (Invitrogen, Clone ID# CSODB003YJ02). The final sequence-verified cDNA contained the coding region for a NH2-terminal tag, which encoded for 6 histidines and then eight vector-encoded amino acids prior to the start of GSK3β, which contained by # 43-1342 of Genbank Accession # NM_002093, encoding amino acids #2-419. The predicted molecular weight of the tagged, 435 amino acid, full-length protein is 48.5 kDa. The major structural element of this protein is the kinase domain, which is from amino acids #56-340. Recombinant baculoviral DNA was prepared by transposition in E. coli (BAC-TO-BAC system: Invitrogen) and the virus generated and amplified in Sf21 insect cells. A suspension culture of Sf21 cells was infected at an MOI of 0.7 and cell density of 1.5×10^6 cells/mL in Excell 420 serum-free media (JRH BioScience) and harvested 65 h after infection. The 100,000×g supernatant solution was used for purification. Expression was confirmed by running samples on SDS-PAGE, followed by immunoblot analysis utilizing both a Penta-HIS antibody (Qiagen #34660) and a GSK-3α/GSK-3β antibody (Calbiochem #368662, data not shown). The His6-tagged protein was purified to in one step by Ni-NTA affinity chromatography.
Inhibitory effects of compounds on baculoviral GSK-3β kinase activity were evaluated using an ELISA-based format in a 384-well FluoroNunc Maxisorp plate (Cat # 460372) with a time-resolved fluorescence readout. Briefly, each plate was coated with 50 μl/well of 20 μg/ml substrate solution (recombinant GST-Rb) in Tris-buffered saline (TBS). The GSK-3β assay mixture (total volume=50 μl/well) consisting of 50 mM HEPES (pH 7.2), 20 μM ATP, 10 mM MgCl2, 5 mM EGTA, 25 mM β-glycerophosphate, 0.05% BSA, 2.5% DMSO, and various concentrations of test compound were then added to the assay plate. Enzyme (200 ng/ml His6-GSK-3β) was then added and the reaction was allowed to proceed at 37° C. for 30 minutes. Detection of the phosphorylated product was performed by adding 50 μl/well of phospho-Rb (Ser-780) antibody (Cell Signaling # 9307) diluted 1:10,000 in antibody dilution buffer (0.1% BSA in TBST). After 1-hour incubation at 37° C., 50 μl/well of Eu-N1 labelled anti-rabbit antibody (Wallac # AD0105; 1:50,000 in antibody dilution buffer) was added. Incubation at 37° C. then proceeded for 1 hour, followed by addition of 50 μl enhancement solution (Wallac #1244-105). The plate was gently agitated and after a few minutes, the fluorescence of the resulting solution was measured using a Multilabel Reader (Victor2 Model # 1420-018 or Envision Model 2100). Inhibition data were analyzed using ActivityBase and IC50 curves were generated using XLFit 3.0.5.

T1 sequence (Q00535 whole entry): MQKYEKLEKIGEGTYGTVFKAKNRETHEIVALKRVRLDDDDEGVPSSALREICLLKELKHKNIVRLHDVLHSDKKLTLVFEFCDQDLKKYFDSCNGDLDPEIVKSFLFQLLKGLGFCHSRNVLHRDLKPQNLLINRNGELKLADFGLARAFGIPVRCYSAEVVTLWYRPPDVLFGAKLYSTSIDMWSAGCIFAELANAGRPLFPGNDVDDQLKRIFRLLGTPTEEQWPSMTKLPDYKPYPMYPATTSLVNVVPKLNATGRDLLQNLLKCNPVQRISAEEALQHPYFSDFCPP
T1 sequence (Q15078 108-307 partner limits assumed): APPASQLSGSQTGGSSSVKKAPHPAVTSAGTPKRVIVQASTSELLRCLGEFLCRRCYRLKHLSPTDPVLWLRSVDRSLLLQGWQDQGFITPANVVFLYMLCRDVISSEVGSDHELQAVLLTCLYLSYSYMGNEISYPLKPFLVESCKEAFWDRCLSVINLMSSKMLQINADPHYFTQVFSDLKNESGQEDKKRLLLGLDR

CN(C)CCN(C)c1nc(C2C(=O)Nc3ccc(Cl)cc32)c2cn(C3CCCC3)nc2n1 (centres unmarked) [Example 140, 5-Chloro-3-{2-cyclopentyl-6-[(2-dimethylamino-ethyl)-methyl-amino]-2H-pyrazolo[3,4-d]pyrimidin-4-yl}-1,3-dihydro-indol-2-one]
pIC50 (CDK5/GST-p25): < 5.00 | pIC50 (His6-GSK-3β): > 6.52

O=C1Nc2ccc(Cl)cc2C1c1nc(N2CCOCC2)nc2nn(C3CCCC3)cc12 (centres unmarked) [Example 143, 5-Chloro-3-(2-cyclopentyl-6-morpholin-4-yl-2H-pyrazolo [3,4-d]pyrimidin-4-yl)-1,3-dihydro-indol-2-one]
pIC50 (CDK5/GST-p25): < 5.00 | pIC50 (His6-GSK-3β): > 6.52

CN(C)CCN1CCN(c2nc(C3C(=O)Nc4ccc(Cl)cc43)c3cn(C4CCCC4)nc3n2)CC1 (centres unmarked) [Example 144, 5-Chloro-3-{2-cyclopentyl-6-[4-(2-dimethylamino-ethyl)-piperazin-1-yl]-2H-pyrazolo[3,4-d]pyrimidin-4-yl}-1,3-dihydro-indol-2-one]
pIC50 (CDK5/GST-p25): < 5.00 | pIC50 (His6-GSK-3β): > 6.52

N#Cc1ccc2c(c1)C(c1nc(Nc3cccnc3)nc3nn(C4CCCC4)cc13)C(=O)N2 (centres unmarked) [Example 169, 3-[2-Cyclopentyl-6-(pyridin-3-ylamino)-2H-pyrazolo [3,4-d]pyrimidin-4-yl]-2-oxo-2,3-dihydro-1H-indole-5-carbonitrile]
pIC50 (CDK5/GST-p25): < 5.00 | pIC50 (His6-GSK-3β): > 6.52

N#Cc1ccc2c(c1)C(c1nc(NCCCN3CCCCC3)nc3nn(C4CCCC4)cc13)C(=O)N2 (centres unmarked) [Example 170, 3[2-Cyclopentyl-6-(3-piperidin-1-yl-propylamino)-2H-pyrazolo[3,4-d]pyrimidin-4-yl]-2-oxo-2,3-dihydro-1H-indole-5-carbonitrile]
pIC50 (CDK5/GST-p25): 5.52 to 6.52 | pIC50 (His6-GSK-3β): > 6.52

N#Cc1ccc2c(c1)C(c1nc(NCc3ccc(Cl)nc3)nc3nn(C4CCCC4)cc13)C(=O)N2 (centres unmarked) [Example 171, 3-{6-[(6-Chloro-pyridin-3-ylmethyl)-amino]-2-cyclopentyl-2H-pyrazolo[3,4-d]pyrimidin-4-yl}-2-oxo-2,3-dihydro-1H-indole-5-carbonitrile]
pIC50 (CDK5/GST-p25): > 6.52 | pIC50 (His6-GSK-3β): > 6.52

CN(Cc1cccnc1)c1nc(C2C(=O)Nc3ccc(C#N)cc32)c2cn(C3CCCC3)nc2n1 (centres unmarked) [Example 172, 3-[2-Cyclopentyl-6-(methyl-pyridin-3-ylmethyl-amino)-2H-pyrazolo [3,4-d]pyrimidin-4-yl]-2-oxo-2,3-dihydro-1H-indole-5-carbonitrile]
pIC50 (CDK5/GST-p25): < 5.00 | pIC50 (His6-GSK-3β): > 6.52

N#Cc1ccc2c(c1)C(c1nc(NCc3ccc(C(F)(F)F)nc3)nc3nn(C4CCCC4)cc13)C(=O)N2 (centres unmarked) [Example 173, 3-{2-Cyclopentyl-6-[(6-trifluoromethyl-pyridin-3-ylmethyl)-amino]-2H-pyrazolo [3,4-d]pyrimidin-4-yl}-2-oxo-2,3-dihydro-1H-indole-5-carbonitrile]
pIC50 (CDK5/GST-p25): > 6.52 | pIC50 (His6-GSK-3β): > 6.52

COCCNc1nc(C2C(=O)Nc3ccc(C#N)cc32)c2cn(C3CCCC3)nc2n1 (centres unmarked) [Example 174, 3-[2-Cyclopentyl-6-(2-methoxy-ethylamino)-2H-pyrazolo [3,4-d]pyrimidin-4-yl]-2-oxo-2,3-dihydro-1H-indole-5-carbonitrile]
pIC50 (CDK5/GST-p25): > 6.52 | pIC50 (His6-GSK-3β): > 6.52

COCCCNc1nc(C2C(=O)Nc3ccc(C#N)cc32)c2cn(C3CCCC3)nc2n1 (centres unmarked) [Example 175, 3-[2-Cyclopentyl-6-(3-methoxy-propylamino)-2H-pyrazolo [3,4-d]pyrimidin-4-yl]-2-oxo-2,3-dihydro-1H-indole-5-carbonitrile]
pIC50 (CDK5/GST-p25): > 6.52 | pIC50 (His6-GSK-3β): > 6.52

N#Cc1ccc2c(c1)C(c1nc(NCc3ccncc3)nc3nn(C4CCCC4)cc13)C(=O)N2 (centres unmarked) [Example 176, 3-{2-Cyclopentyl-6-[(pyridin-4-ylmethyl)-amino]-2H-pyrazolo[3,4-d]pyrimidin-4-yl}-2-oxo-2,3-dihydro-1H-indole-5-carbonitrile]
pIC50 (CDK5/GST-p25): > 6.52 | pIC50 (His6-GSK-3β): > 6.52

N#Cc1ccc2c(c1)C(c1nc(NCCN3CCOCC3)nc3nn(C4CCCC4)cc13)C(=O)N2 (centres unmarked) [Example 177, 3-[2-Cyclopentyl-6-(2-morpholin-4-yl-ethylamino)-2H-pyrazolo[3,4-d]pyrimidin-4-yl]-2-oxo-2,3-dihydro-1H-indole-5-carbonitrile]
pIC50 (CDK5/GST-p25): > 6.52 | pIC50 (His6-GSK-3β): > 6.52

N#Cc1ccc2c(c1)C(c1nc(NCCN3CCSCC3)nc3nn(C4CCCC4)cc13)C(=O)N2 (centres unmarked) [Example 178, 3-[2-Cyclopentyl-6-(2-thiomorpholin-4-yl-ethylamino)-2H-pyrazolo[3,4-d]pyrimidin-4-yl]-2-oxo-2,3-dihydro-1H-indole-5-carbonitrile]
pIC50 (CDK5/GST-p25): 5.52 to 6.52 | pIC50 (His6-GSK-3β): > 6.52

O=C1Nc2ccc(Br)cc2C1c1nc(NCc2ccccn2)nc2nn(C3CCCC3)cc12 (centres unmarked) [Example 179, 5-Bromo-3-{2-cyclopentyl-6-[(pyridin-2-ylmethyl)-amino]-2H-pyrazolo [3,4-d]pyrimidin-4-yl}-1,3-dihydro-1H-indol-2-one]
pIC50 (CDK5/GST-p25): 5.52 to 6.52 | pIC50 (His6-GSK-3β): > 6.52

O=C1Nc2ccc(Br)cc2C1c1nc(NCc2ccncc2)nc2nn(C3CCCC3)cc12 (centres unmarked) [Example 180, 5-Bromo-3-{2-cyclopentyl-6-[(pyridin-4-ylmethyl)-amino]-2H-pyrazolo[3,4-d]pyrimidin-4-yl}-1,3-dihydro-1H-indol-2-one]
pIC50 (CDK5/GST-p25): > 6.52 | pIC50 (His6-GSK-3β): > 6.52

O=C1Nc2ccc(Br)cc2C1c1nc(NCCc2cccnc2)nc2nn(C3CCCC3)cc12 (centres unmarked) [Example 181, 5-Bromo-3-[2-cyclopentyl-6-(2-pyridin-3-yl-ethylamino)-2H-pyrazolo [3,4-d]pyrimidin-4-yl]-1,3-dihydro-1H-indol-2-one]
CDK5 % @10 μM (CDK5/GST-p25; @10 μM): 70% @10 μM | pIC50 (His6-GSK-3β): > 6.52

From patent US8354414B2, “Substituted bicyclic pyrimidines” (Cephalon, Inc, priority 2006, dated 2013)
